# Test results from publication PMC9865040, “Design of A3B-Porphyrin Conjugates with Terpyridine as Potential Theranostic Agents: Synthesis, Complexation with Fe(III), Gd(III), and Photodynamic Activity” (Pharmaceutics, 2023).
# How the values were obtained:
# [1] = standard; cited from earlier work
# [2] = design: method as in PMID 17020252, PMID 24063545, doi:10.1002/(SICI)1099-1409(199803/04)2:2<145::AID-JPP60>3.0.CO; conditions: in DMF, standard; cited from earlier work
# [3] = test system: NKE cells (human kidney epithelium); assay: Comet assay (DNA damage test); format: cell-based; conditions: 1 μg/mL, 24 h, positive control
# Method: Comet assay. NKE cells (human kidney epithelium) were seeded into 24-well plates at 8 × 10^4 per well and incubated in DMEM medium (PanEco, Russia) with penicillin-streptomycin (50 units/mL) (PanEco, Russia) and 10% fetal bovine serum (PanEco, Russia) at 37 °C in 5% CO2. After 24 h, the medium was changed to a similar one but without serum to avoid interaction of the studied substance with it. […] Cells serving as positive controls were treated with ifosfamide (Baxter Oncology, Germany) at a final concentration of 1 μg/mL. Cell culture with the substances was left for 24 h at 37 °C in 5% CO2. Once this time was reached, the cells were removed from the substrate and washed twice with phosphate-salt buffer (PBS). Direct Comet assay was performed using OxiSelect™ Comet Assay Kit (Cell Biolabs, USA) according to the manufacturer’s protocol. Samples were stained with fluorescent dye Sybr Gold, Invitrogene, USA, and examined with a Zeiss microscope using a filter for FITC-fluorescence. All necessary measurements were performed using the computer program CometScore2.0. Statistics were calculated using Student’s t-test using the Microsoft Excel software package.
# During the study, the NKE cells were seeded in 24-well plates. […] After this time, the assay itself was performed using OxiSelect™ Comet Assay Kit (Cell Biolabs, San Diego, CA, USA). […]
# [4] = Aggregation behaviour, UV-vis absorption and fluorescence spectra in DMF and aqueous solubiliser solutions; format: physicochemical; conditions: DMSO
# [5] = Singlet oxygen quantum yield, DPBF oxidation in DMF, ZnTPP as standard; format: physicochemical; conditions: air-saturated, λ ≥ 500 nm
# Excerpt: Photochemical experiments for singlet oxygen quantum yield determination. Porphyrin-containing samples were irradiated in quartz cells at room temperature in air-saturated DMF solutions. Light source consisted of halogen lamp (150 W), thermal and UV filters, a three-lens spherical condenser with a reflector, and a cut-off filter (λ ≥ 500 nm). The light flux power was 10 mW/cm^2. The efficiency of photosensitised ^1O2 generation in porphyrin solutions was estimated from the dynamics of the absorbance decrease at 415 nm, corresponding to the absorption maximum of the selective ^1O2 acceptor-1,3-diphenylisobenzofuran (DPBF). DPBF was added to the solution of the tested compound in the dark immediately before the start of the photochemical experiment (CDPBF = 0.1 mM). […] The singlet oxygen quantum yield (ΦΔ) were calculated according to the known procedure with ZnTPP being a standard (ΦΔ = 0.74 in DMF).
# [6] = test system: NKE (human normal kidney epithelial) cell line; assay: Cell viability study (MTT-test) with and without irradiation; format: cell-based
# Method: (§1) Biological activity. Cell viability study (MTT-test) on Hep2 (human laryngeal cancer) and NKE (normal kidney epithelial) cell lines. For this study, cells were plated into 96-well plates (BD Micro-FinePlus, Franklin Lakes, USA) (6 × 10^3 cells in 180 μL of culture medium) and incubated for 24 h at 37 °C in 5% CO2. The medium was standard DMEM (PanEco, Moscow, Russia) with penicillin-streptomycin (50 units/mL) (PanEco, Moscow, Russia) supplemented with 10% fetal bovine serum (PanEco, Russia). After this time, culture medium was replaced with a similar volume of Hanks’ solution (PanEco, Russia) with glucose added at a final concentration of 4.5 mg/mL. On the day of the experiment, serial dilutions of the compound in deionised water were made and 20 μL was added to the cell culture. The cell culture thus obtained was irradiated for 90 min using a Medical Therapy Philips TL 20W/52 lamp (wavelength 400–500 nm), power 2.3 mW. In parallel, the cell culture was incubated with the compound in the dark. After 90 min, in both cases, Hanks’ solution with the compound was replaced with DMEM medium without serum. The cell culture was then left for 24 h at 37 °C in 5% CO2 in the dark, after which 10 μL of MTT reagent solution (5 mg/mL, PanEco, Russia) was added and incubated for another 3.5 h. The formed formazan in cells was dissolved in 100 μL DMSO. The optical density of the solution was measured on a MultiScan MCC 340 spectrophotometer (Labsystems, Kennett Square, PA, USA) at 540 nm. Each series of experiments was repeated 3 times. […] Statistical processing of the obtained data was performed using Excel program package (Microsoft).
# (§2) Cell viability study (MTT-test). The cytotoxicity of compounds 12 and 14 was studied on a Hep2 cell line (human laryngeal cancer) and NKE (human normal kidney epithelial), with and without irradiation. Two approaches were used when treating the cells. In the first case, compounds 12 and 14 were introduced into the cell culture only for the irradiation time (90 min). After that, the cell medium containing one of the compounds was removed. The cells were incubated in a fresh DMEM medium without compounds for a further 24 h, after which time the results were evaluated. The IC50 values were close for both cell lines (Table 4, Figure 5 and Figure S58). […] The results for the NKE cell line are presented in Table 4 and Figure S58 (Supporting Information).
# (§3) In the second series of experiments, cell viability was evaluated 24 h after irradiation without removing the compound from the culture medium.
# [7] = test system: Hep2 cell line (human laryngeal cancer); assay: as above; format: cell-based
# Method: as §1, §2, §3
# [8] = Aggregation behaviour, UV-vis absorption and fluorescence spectra in DMF and aqueous solubiliser solutions; format: physicochemical
# Method: Aggregation behavior, photophysical characterization and solubilisation studies. Photophysical properties of zinc complexes of amphiphilic meso-arylporphyrins and their conjugates with terpyridine were studied in DMF and aqueous solutions of different solubilisers. Stock solutions of 1 mM of the studied compounds in DMF were added upon stirring to a micellar aqueous solution of a solubiliser (3 mL). The final concentration of the porphyrins was 3.5 µM. UV-vis absorption spectra were recorded using HACH DR-4000V spectrophotometer (Hach-Lange, Loveland, CO, USA) within the wavelength range of 320–800 nm with a step of 1 nm in quartz cells (10 mm) at room temperature. Steady-state fluorescence spectra were recorded using Perkin Elmer LS-50 (USA) luminescent spectrometer under similar conditions with the Soret band maximum excitation. Fluorescence quantum yields (ΦF) for Zn(II) complexes in DMF were measured according to the procedure using ZnTPP as a standard (ΦF = 0.033).
smiles,measurement,setting,value
C1=Cc2nc1c(-c1ccccc1)c1ccc([n-]1)c(-c1ccccc1)c1nc(c(-c3ccccc3)c3ccc([n-]3)c2-c2ccccc2)C=C1.[Zn+2] [ZnTPP],fluorescence quantum yield ΦF,[1],0.033
same,singlet oxygen quantum yield ΦΔ,[2],0.74
O=P1(NCCCl)OCCCN1CCCl (centres unmarked) [ifosfamide],proportion of 'comet' cells,[3],36.1 ± 2.14%
CCCCCCOc1ccc(-c2c3nc(c(-c4ccc(OCCCCCC)cc4)c4ccc([n-]4)c(-c4ccc(OCc5ccc(-c6cc(-c7ccccn7)nc(-c7ccccn7)c6)cc5)cc4)c4nc(c(-c5ccc(OCCCCCC)cc5)c5ccc2[n-]5)C=C4)C=C3)cc1.[Zn+2] [compound 12],ΔλB (half-width of the Soret band),[4],10 nm
same,singlet oxygen quantum yield,[5],about 65%
same,IC50,"[6]; dark conditions, 24 h",2440 ± 281 nM
same,IC50,"[6]; light irradiation 8.073 J/cm^2, 24 h",2570 ± 320 nM
same,IC50,"[6]; light irradiation 8.073 J/cm^2, […]",1700 ± 297 nM
same,IC50,"[7]; dark conditions, 24 h",2550 ± 280 nM
same,toxic effect without irradiation,"[7]; dark, […] incubation, studied concentration range",no toxic effect
same,IC50,"[7]; light irradiation 8.073 J/cm^2, 24 h, compound not removed",2470 ± 233 nM
same,IC50,"[7]; light irradiation 90 min, 8.073 J/cm^2, compound present […] then removed, read after 24 h",1870 ± 333 nM
same,solubilisation,"[8]; 0.5 mM Tween-80, 1% Cremophor EL and 1% Pluronic F-127",partial solubilisation
same,lgε,[8]; Brij-58 (0.5 mM),5.15
same,ΔλB (half-width of the Soret band),[8]; Brij-58 (0.5 mM),28 nm
same,"λem, second band",[8]; Brij-58 (0.5 mM),660 nm
same,lgε,[8]; Cremophor (1% Cremophor EL),5.35
same,ΔλB (half-width of the Soret band),[8]; Cremophor (1% Cremophor EL),27 nm
same,"λem, second band",[8]; Cremophor (1% Cremophor EL),655 nm
same,λmax,[8]; Cremophor (1% Cremophor EL),430
same,"molar absorption coefficient, times lower than for ZnTPP",[8]; DMF,1.5 times
same,λQ (first Q band),[8]; DMF,560 nm
same,lgε,[8]; DMSO,5.70
same,ΔλB (half-width of the Soret band),[8]; H2O,36 nm
same,"λem, second band",[8]; H2O,660 nm
same,lgε,[8]; Pluronic (1% Pluronic F-127),5.36
same,ΔλB (half-width of the Soret band),[8]; Pluronic (1% Pluronic F-127),22 nm
same,"λem, second band",[8]; Pluronic (1% Pluronic F-127),658 nm
same,lgε,[8]; TX-100 (1 mM),5.34
same,ΔλB (half-width of the Soret band),[8]; TX-100 (1 mM),25 nm
same,lgε,[8]; Tween-80 (0.5 mM),5.40
same,ΔλB (half-width of the Soret band),[8]; Tween-80 (0.5 mM),19 nm
